Earlier results in US7456141B2, “Photo resist stripper composition” (Echem Solutions Corp., priority 2004, dated 2008).
Read-outs that look alike come from different tables or passages of the source.

How the values were obtained:
[1] = Table 3, route and species not given; in mg/kg
[2] = Table 3
Rat [3] = system: Rat
[4] = for Flash Point / Ignition Point / Vaporizing Speed: Table 2; for Steam Pressure: at 20 ° C. (mmHg/° C. [sic])
[5] = for STEL: Short Time Exposure Limit, 15 minutes; for TWA: Time Weighted Average, eight hours a day and 40 hours a week
Rat [6] = system: Rat; remark: listed apart in the source
Rat [7] = system: Rat; remark: listed apart in the source

| SMILES | LD50 [1] | Flash Point [2] | Vaporizing Point [2] | Viscosity [2] | LC50/Inhale/Rat (Rat [3]; exposure time not given) | Flash Point [4] | Ignition Point [4] | Vaporizing Speed [4] | Steam Pressure [4] | STEL [5] | TWA [5] | LD50/Hypodermic/Rabbit (Rabbit) | LC50/Inhale/Mouse (Mouse) | LC50/Inhale/Rat (Rat [3]; 7 hrs.) | LD50/Oral/Rat (Rat [6]) | LD50/Hypodermic/Rat (Rat [7]; hypodermic) | LC50/Inhale/Rat (Rat [3]; 6 hrs.) | LD50/Hypodermic/Rat (Rat [7]; in vivo) | LC50/Inhale/Rat (Rat [3]; 4 hrs.) |
| --- | --- | --- | --- | --- | --- | --- | --- | --- | --- | --- | --- | --- | --- | --- | --- | --- | --- | --- | --- |
| O=C1CCCCC1 [ANONE, cyclohexanone] | 1535 | 44 °C | 4 °C | 2.2 cst |  |  |  |  |  |  |  |  |  |  |  |  |  |  |  |
| CC(=O)OCCC(C)C [IAAc, Isoamyl acetate] | 16600 | 25 °C | 4 °C |  |  |  |  |  |  |  |  |  |  |  |  |  |  |  |  |
| CC(=O)CC(C)C [MIBK, Methyl isobutyl ketone] |  |  |  |  | LC50/Inhale/Rat: 4000 ppm | 18 °C | 449 °C | 1.57 | 16/20 mmHg | 75 ppm | 50 ppm | LD50/Hypodermic/Rabbit: 20 mg/kg | LC50/Inhale/Mouse: 23300 mg/m^3 |  |  |  |  |  |  |
| COCC(C)O (centres unmarked) [PGME, propylene glycol mono-methyl ether] | 6600 | 32 °C | 11.8 °C | 1.8 cst |  | 32 °C |  | 0.66 | 6.7/20 mmHg |  | 100 ppm |  |  | LC50/Inhale/Rat: 15000 ppm (7 hrs.) | LD50/Oral/Rat: 6600 mg/kg | LD50/Hypodermic/Rat: 13000 mg/kg |  |  |  |
| COCC(C)OC(C)=O (centres unmarked) [PGMEA, Propylene glycol mono-methyl ether acetate] | 8532 | 47 °C | 3.8 °C | 1.1 cst |  | 42 °C | 354 °C | 0.34 | 3.8/20 mmHg |  | 100 ppm |  |  |  | LD50/Oral/Rat: 8532 mg/kg |  | LC50/Inhale/Rat: 4345 ppm (6 hrs.) | LD50/Hypodermic/Rat: 5000 mg/kg |  |
| CCCCOC(C)=O [nBAc, n-Butyl Acetate] | 13100 | 22 °C | 15 °C | 0.7 cst |  | 22 °C | 425 °C | 0.98 | 7.8/20 mmHg | 200 ppm | 150 ppm |  |  |  |  |  |  |  | LC50/Inhale/Rat: 2000 ppm (4 hrs.) |
